The text below walks through data of publication PMC12319374, “Efficient and Rapid Arylation of NH₂‐Unprotected Bromobisindole Ethanamines via Suzuki‐Miyaura Coupling: Generating New Leads Against Leishmania” (Chemistry (Weinheim an Der Bergstrasse, Germany), 2025).

The subject of data set [1] is THP-1 cells. In words: Evaluation of cytotoxicity on THP-1 cells (MTS). Format: cell-based, human. To be noted: 72 h, PMA-differentiated THP-1. The procedure: (§1) Finally, eighteen compounds were first screened for efficacy against L. infantum MHOM/TN/80/IPT1 promastigotes at a single dose of 20 µM for 72 hours.
(§2) L. infantum MHOM/TN/80/IPT1 (WHO international reference strain) was purchased from ATCC (ATCC® 50134™) and was cultured in Evans's Modified Tobie Medium (EMTM) at 26–28 °C. To test the compounds, parasites were resuspended in RPMI-PY medium as described previously. The human monocytic cell line THP-1 (ECACC 88081201) was cultured in RPMI-1640 medium supplemented with 10% heat-inactivated Fetal Bovine Serum (FBS), 100 μg/ml streptomycin, […] and maintained in a humidified incubator at 37 °C and 5% CO2. All the cell culture reagents were purchased from Sigma-Aldrich (St. Louis, MO, USA).
The cytotoxicity of the compounds was assessed on THP-1 cells seeded at a density of 5 × 10^5 cells per mL, 100μL/well in a 96-well plate and treated for 72 h with 20 ng/mL phorbol myristic acid (PMA) to induce differentiation into macrophages like cells. After cell adhesion to the plate, each molecule was tested at 4, 20 and 100 μM for 72 h at 37 °C.
Three selected compounds were further evaluated at different concentration, obtained from scalar dilutions 1:2 (from 100 µM to 3.12 μM) for 72 h at 37°C. The negative control (untreated THP-1 cells) and the positive control (miltefosine) were included in each experiment. Each condition was carried out in duplicate. To evaluate the compounds cytotoxicity, the CellTiter 96H Aqueous Non-Radioactive Cell Proliferation Assay (Promega), was used as described before. […]

The subject of data set [2] is L. infantum MHOM/TN/80/IPT1 promastigotes. The data set can be described thus: L. infantum promastigotes viability assay (MTS). Format: cell-based, Leishmania infantum. To be noted: Leishmania infantum, 72 h, single dose 20 µM. The procedure:
as §1, §2
Late log/stationary phase L. infantum promastigotes were resuspended in RPMI-PY medium at a density of 2.5×10^6 parasites/mL in 96-well plates (100μL/well). The anti-parasitic activity of the eighteen compounds of the library was initially investigated at a single dose of 20 μM for 72 h at 26 °C. […] Not treated parasites were included as negative control. As positive control, the anti-leishmanial drug miltefosine (Sigma-Aldrich, Milan, Italy) was used. Each condition was carried out in duplicate. To evaluate the promastigotes viability, the CellTiter 96H Aqueous Non-Radioactive Cell Proliferation Assay (Promega), based on the ability of viable cells to convert a soluble tetrazolium salt [3-(4.5-dimethylthiazol-2-yl)-5-(3-carboxymethoxy-phenyl)-2-(4-sulfophenyl)-2H-tetrazolium. MTS] to a formazan product, was performed. To this end, 20 μL of MTS/PMS (phenazinemethosulfate, Sigma-Aldrich) was added to 100 μL of culture medium and incubated at 26°C until formazan production. Absorbance was recorded on a Microplate Reader (Infinite® F50 Plus, Tecan) at 492 nm. The IC50 values were calculated using nonlinear regression curves in GraphPad Prism 8.0 (GraphPad Software,Inc., San Diego, CA). The equation used for data fitting was Y= 100/(1 + 10∧((Log IC50 −X)*HillSlope)) (hillslope not constrained), where X is the log of concentration and Y is the normalized response. […]

For the compound `NCC(c1c[nH]c2cc(-c3cccc(OCc4ccccc4)c3)ccc12)c1c[nH]c2cc(-c3cccc(OCc4ccccc4)c3)ccc12` [3ai, 2,2-bis(6-(3-(benzyloxy)phenyl)-1H-indol-3-yl)ethan-1-amine], the “Cytotoxicity on THP‐1 (100, 20, 4 µM) (%)” value (“Cytotoxicity … (%)” for short) in data set [1] (4 µM) worked out at 1%; in data set [1] (20 µM), 90%; in data set [1] (100 µM), 72%.

As to `NCC(c1c[nH]c2cc(-c3ccc(F)cc3)ccc12)c1c[nH]c2cc(-c3ccc(F)cc3)ccc12` [3ab, 2,2-bis(6-(4-fluorophenyl)-1H-indol-3-yl)ethan-1-amine], 20 µM produced 97.1% inhibition in data set [2]. The results for the “Cytotoxicity … (%)” value in data set [1] (4 µM), in data set [1] (20 µM) and in data set [1] (100 µM) were −33%, 97% and 85%, respectively.

In the case of `NCC(c1c[nH]c2ccc(-c3ccccc3)cc12)c1c[nH]c2ccc(-c3ccccc3)cc12` [3ba, 2,2-bis(5-phenyl-1H-indol-3-yl)ethan-1-amine], in data set [2], the inhibition (in general, the share of the control response that was lost under treatment) at 20 µM turned out to be 96.8%. The “Cytotoxicity … (%)” value in data set [1] (4 µM) is −22%; in data set [1] (20 µM), 98%; in data set [1] (100 µM) it was 91%.

Consider `NCC(c1c[nH]c2cc(/C=C/c3ccc(Cl)cc3)ccc12)c1c[nH]c2cc(/C=C/c3ccc(Cl)cc3)ccc12` [3ar, 2,2-bis(6-((E)-4-chlorostyryl)-1H-indol-3-yl)ethan-1-amine], for which the inhibition at 20 µM in data set [2] was 95.1%. Besides, the figures for the “Cytotoxicity … (%)” value in data set [1] (4 µM), in data set [1] (20 µM) and in data set [1] (100 µM) were −32%, 95% and 66%, respectively.

The compound `COc1ccccc1-c1ccc2c(C(CN)c3c[nH]c4cc(-c5ccccc5OC)ccc34)c[nH]c2c1` [3ak, 2,2-bis(6-(2-methoxyphenyl)-1H-indol-3-yl)ethan-1-amine] yielded an inhibition at 20 µM in data set [2] of 96.5%. The results for the “Cytotoxicity … (%)” value in data set [1] (4 µM), in data set [1] (20 µM) and in data set [1] (100 µM) were −4%, 97% and 86%, respectively.

As to `NCC(c1c[nH]c2cc(-c3cccc4ccccc34)ccc12)c1c[nH]c2cc(-c3cccc4ccccc34)ccc12` [3an, 2,2-bis(6-(naphthalen-1-yl)-1H-indol-3-yl)ethan-1-amine], in data set [2], the inhibition at 20 µM was 97.8%. The “Cytotoxicity … (%)” value in data set [1] (4 µM) was −15%; in data set [1] (20 µM), 95%; in data set [1] (100 µM), 79%.

Regarding `NCC(c1c[nH]c2cc(-c3ccc4ccccc4c3)ccc12)c1c[nH]c2cc(-c3ccc4ccccc4c3)ccc12` [3ao, 2,2-bis(6-(naphthalen-2-yl)-1H-indol-3-yl)ethan-1-amine], the inhibition at 20 µM in data set [2] is 95.1%. Further, the figures for the “Cytotoxicity … (%)” value in data set [1] (4 µM), in data set [1] (20 µM) and in data set [1] (100 µM) were −13%, 94% and 76%, respectively.

For `COc1ccc(-c2ccc3c(C(CN)c4c[nH]c5cc(-c6ccc(OC)cc6)ccc45)c[nH]c3c2)cc1` [3ad, 2,2-bis(6-(4-methoxyphenyl)-1H-indol-3-yl)ethan-1-amine], the inhibition at 20 µM in data set [2] was 95.1%. Besides, the figures for the “Cytotoxicity … (%)” value in data set [1] (4 µM), in data set [1] (20 µM) and in data set [1] (100 µM) were −12%, 96% and 86%, respectively.

On to `NCC(c1c[nH]c2cc(-c3cccc(Cl)c3)ccc12)c1c[nH]c2cc(-c3cccc(Cl)c3)ccc12` [3ag, 2,2-bis(6-(3-chlorophenyl)-1H-indol-3-yl)ethan-1-amine], for which, in data set [2], the inhibition at 20 µM was 93.6%. The “Cytotoxicity … (%)” value in data set [1] (4 µM) is given as −7%; in data set [1] (20 µM), 97%; in data set [1] (100 µM), 84%.

Compound `NCC(c1c[nH]c2cc(-c3ccccc3)ccc12)c1c[nH]c2cc(-c3ccccc3)ccc12` [3aa, 2,2-bis(6-phenyl-1H-indol-3-yl)ethan-1-amine] gave an inhibition at 20 µM in data set [2] of 96.2%. For the same compound, the “Cytotoxicity … (%)” value in data set [1] (4 µM) is −18%; in data set [1] (20 µM), 97%; in data set [1] (100 µM), 87%.
